Experimental data as given in US20230219942A1, “COMPOUNDS COMPRISING A THREE RING CORE AS PD-1/PD-L1 BLOCKERS” (RELIVE THERAPEUTICS INC., priority 2020, published 2023).
Read-outs that look alike come from different tables or passages of the source.

Biological target: T1, PD-1/PD-L1 interaction (Homo sapiens, UniProt Q9NZQ7)
T1 construct: Tag1 or Tag2 (undisclosed kit tag); purchased Cisbio
Test: Cisbio PD-1/PD-L1 Homogeneous Time-Resolved Fluorescence (HTRF) binding assay
Settings: for IC50: read-out: Reported IC50
From the text: The ability of compounds of the disclosure to inhibit the PD-1/PD-L1 interaction was investigated using a Cisbio PD-1/PD-L1 Homogeneous Time-Resolved Fluorescence (HTRF) binding assay (https://ca.cisbio.net/human-pd1-pd-l1-biochemical-binding-assay-44666).
With the assay, the interaction between PD-L1 and PD-1 is detected by using anti-Tag1 labeled with Europium (HTRF donor) and anti-Tag2 labeled with XL665 (HTRF acceptor). When the donor and acceptor antibodies are brought into close proximity due to PD-L1 and PD-1 binding, excitation of the donor antibody triggers fluorescence resonance energy transfer (FRET) towards the acceptor antibody, which in turn emits specifically at 665 nm. This specific signal is directly proportional to the extent of PD-1/PD-L1 interaction. Thus, a compound blocking the PD-1/PD-L1 interaction causes a reduction in the HTRF signal.
The assay was carried out in accordance with the product insert.

[1] = Table 10, * n = 7, median, P1 and P2 are different isomers
[2] = Table 10, same result in μM, P1 and P2 are different isomers

T1 sequence (Q9NZQ7 19-238 limits assumed): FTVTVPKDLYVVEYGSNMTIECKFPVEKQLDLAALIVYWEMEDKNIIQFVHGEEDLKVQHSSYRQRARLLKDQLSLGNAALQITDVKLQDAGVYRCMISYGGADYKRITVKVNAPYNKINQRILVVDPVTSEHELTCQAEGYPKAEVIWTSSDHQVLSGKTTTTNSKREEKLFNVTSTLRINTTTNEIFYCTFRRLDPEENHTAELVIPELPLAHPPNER

Structure (SMILES) | IC50 (Table 9) | IC50 (Table 9, same result in μM) | further results
O=C(Cc1ccccc1)N1CCN(Cc2csc(NC[C@@H]3CCCN3Cc3ccc(Br)cc3)n2)CC1 [Compound 2463-262] | – | – | IC50 (Table 8, Run: Crude): 3.1 µM
O=C(CCc1nc2ccccc2[nH]1)N1CCN(Cc2csc(NC[C@@H]3CCCN3Cc3ccc(Br)cc3)n2)CC1 [Compound 2678-2] | – | – | IC50 (Table 8, Run: Pure): 1.9 µM
O=C(CCc1nc2ccccc2[nH]1)N1CCN(Cc2csc(NC[C@@H]3CCCN3Cc3ccc(F)cc3)n2)CC1 [Compound 2678-3] | – | – | IC50 (Table 8, Run: Pure): 7 µM
COc1ccc(CN2CCC[C@H]2CNc2nc(CN3CCN(C(=O)CCc4nc5ccccc5[nH]4)CC3)cs2)cc1OC [Compound 2678-5] | – | – | IC50 (Table 8, Run: Pure): 9.2 µM
CCCCCC(=O)N1CCN(Cc2csc(NC[C@@H]3CCCN3CCCc3nc4ccccc4[nH]3)n2)CC1 [Compound 2678-32] | – | – | IC50 (Table 8, Run: Pure (70% Pure)): 7.9 µM
Cc1cnc(C(=O)N2CCN(Cc3csc(NC[C@@H]4CCCN4Cc4ccc(F)cc4)n3)CC2)cn1 [Compound 2678-51] | – | – | IC50 (Table 8, Run: Pure): 8.7 µM
COc1ccc(CN2CCC[C@H]2CNc2nc(CN3CCN(C(=O)c4cnc(C)cn4)CC3)cs2)cc1OC [Compound 2678-53] | – | – | IC50 (Table 8, Run: Pure): 53 µM
CC(Oc1ccccc1)C(=O)N1CCN(Cc2csc(NC[C@@H]3CCCN3Cc3ccc(Br)cc3)n2)CC1 (stereo partly drawn) [Compound 2678-58] | – | – | IC50 (Table 8, Run: Pure): 0.8 µM
O=C(c1ccco1)N1CCN(Cc2csc(NC[C@@H]3CCCN3Cc3ccc(Br)cc3)n2)CC1 [Compound 2678-66] | – | – | IC50 (Table 8, Run: Pure): 0.87 µM
O=C(c1ccco1)N1CCN(Cc2csc(NC[C@@H]3CCCN3CCCc3nc4ccccc4[nH]3)n2)CC1 [Compound 2678-72] | – | – | IC50 (Table 8, Run: Pure (70% Pure)): 11 µM
O=C(CCc1nc2ccccc2[nH]1)N1CCN(Cc2csc(NCC3CC(OCc4ccccc4)CN3Cc3ccc(Br)cc3)n2)CC1 (stereo not drawn) [Compound 2678-78] | – | – | IC50 (Table 8, Run: Pure): 1.6 µM
COc1cc(C(=O)N2CCN(Cc3csc(NCC4CC(OCc5ccccc5)CN4Cc4ccc(Br)cc4)n3)CC2)cc(OC)c1OC (stereo not drawn) [Compound 2678-80] | – | – | IC50 (Table 8, Run: Pure): 0.5 µM
COc1cc(C(=O)N2CCN(Cc3csc(NC[C@@H]4CCCN4Cc4ccc(C5CC5)cc4)n3)CC2)cc(OC)c1OC [Compound A303] | 9.1 µM | 9.1 µM | –
COc1cc(C(=O)N2CCN(Cc3csc(NC[C@@H]4CCCN4Cc4ccc(C)cc4)n3)CC2)cc(OC)c1OC [Compound A304] | 3.5 µM | 3.5 µM | –
COc1cc(C(=O)N2CCN(Cc3csc(NC[C@@H]4CCCN4Cc4cccc(Br)c4)n3)CC2)cc(OC)c1OC [Compound A305] | 36 µM | 36 µM | –
COc1cc(C(=O)N2CCN(Cc3csc(NC[C@@H]4CCCN4Cc4ccccc4Br)n3)CC2)cc(OC)c1OC [Compound A306] | 40 µM | 40 µM | –
COc1ccc(CN2CCC[C@H]2CNc2nc(CN3CCN(C(=O)c4cc(OC)c(OC)c(OC)c4)CC3)cs2)cc1 [Compound A307] | 9.2 µM | 9.2 µM | –
COc1cc(C(=O)N2CCN(Cc3csc(NC[C@@H]4CCCN4Cc4ccncc4)n3)CC2)cc(OC)c1OC [Compound A309] | 10.4 µM | 10 µM | –

Structure (SMILES) | IC50 (Table 9) | IC50 (Table 9, same result in μM) | further results
COc1cc(C(=O)N2CCN(Cc3csc(NC[C@@H]4CCCN4Cc4cnc(C)s4)n3)CC2)cc(OC)c1OC [Compound A310] | 26 µM | 26 µM | –
COc1cc(C(=O)N2CCN(Cc3csc(NC[C@@H]4CCCN4Cc4nnc(C)s4)n3)CC2)cc(OC)c1OC [Compound A311] | > 50 µM | > 50 µM | –
COc1cc(C(=O)N2CCN(Cc3csc(NC[C@@H]4CCCN4Cc4ccncn4)n3)CC2)cc(OC)c1OC [Compound A312] | > 50 µM | > 50 µM | –
COc1ccc(C(=O)N2CCN(Cc3csc(NC[C@@H]4CCCN4Cc4ccc(Br)cc4)n3)CC2)cc1 [Compound A401] | 1.2 µM | 1.2 µM | –
O=C(c1ccc2c(c1)OCO2)N1CCN(Cc2csc(NC[C@@H]3CCCN3Cc3ccc(Br)cc3)n2)CC1 [Compound A404] | 0.88 µM | 0.88 µM | –
Cn1cnc2cc(C(=O)N3CCN(Cc4csc(NCC5CCCN5Cc5ccc(Br)cc5)n4)CC3)ccc21 (stereo not drawn) [Compound A406] | 0.98 µM | 0.98 µM | –
CC(=O)N1CCN(Cc2csc(NC[C@@H]3CCCN3Cc3ccc(Br)cc3)n2)CC1 [Compound A503] | 2.6 µM | 0.26 µM | –
O=C(C1CC1)N1CCN(Cc2csc(NC[C@@H]3CCCN3Cc3ccc(Br)cc3)n2)CC1 [Compound A504] | 2 µM | 2 µM | –
COc1cc(CN2CCN(Cc3csc(NCC4CCCN4Cc4ccccc4)n3)CC2)cc(OC)c1OC (stereo not drawn) [Compound A505] | > 50 µM | > 50 µM | –
COc1cc(CN2CCN(Cc3csc(NCC4CCCN4CC4CC4)n3)CC2)cc(OC)c1OC (stereo not drawn) [Compound A506] | > 50 µM | > 50 µM | –
COc1cc(CN2CCN(Cc3csc(NCC4CCCN4C(=O)c4ccc(Br)cc4)n3)CC2)cc(OC)c1OC (stereo not drawn) [Compound A605] | > 50 µM | > 50 µM | –
COc1cc(C(=O)N2CCN(Cc3csc(N(C)C[C@@H]4CCCN4Cc4ccc(Br)cc4)n3)CC2)cc(OC)c1OC [Compound A606] | > 50 µM | > 50 µM | –
COc1cc(C(=O)N2C[C@@H](C)N(Cc3csc(NC[C@@H]4CCCN4Cc4ccc(Br)cc4)n3)C[C@H]2C)cc(OC)c1OC [Compound A608] | 1.6 µM | 1.6 µM | –
COc1cc(C(=O)N2CCN(Cc3nsc(NC[C@@H]4CCCN4Cc4ccc(Br)cc4)n3)CC2)cc(OC)c1OC [Compound A702] | – | – | IC50 [1]: 0.015 µM; IC50 [2]: 0.015 µM
COc1cc(C(=O)N2CCN(Cc3csc(NC[C@H]4CCCN4Cc4ccc(Br)cc4)n3)CC2)cc(OC)c1OC [Compound A706] | 13 µM | 13 µM | –
COc1cc(C(=O)N2CCN(Cc3nsc(NC[C@@H]4CCCN4Cc4ccc(Cl)cc4)n3)CC2)cc(OC)c1OC [Compound B314] | – | – | IC50 [1]: 0.018 µM; IC50 [2]: 0.018 µM
COc1cc(C(=O)N2CCN(Cc3nsc(NC[C@@H]4CCCN4Cc4ccc(C(F)F)cc4)n3)CC2)cc(OC)c1OC [Compound B316] | – | – | IC50 [1]: 0.025 µM; IC50 [2]: 0.025 µM

The next lines start with results.

IC50 (Table 9) | IC50 (Table 9, same result in μM) | Structure (SMILES) | further results
0.051 µM | 0.051 µM | COc1cc(C(=O)N2CCN(Cc3csc(NC[C@@H]4CCCN4Cc4ccc(Br)cc4)n3)CC2)cc(OC)c1OC [Compound 2678-10] | IC50 (Table 8, Run: Pure): 0.33 µM; KD/IC50 (Table 11, compound of the disclosure): 330 nM
0.14 µM | 0.14 µM | COc1cc(C(=O)N2CCN(Cc3csc(NC[C@@H]4CCCN4Cc4ccc(C(F)(F)F)cc4)n3)CC2)cc(OC)c1OC [Compound A302] | –
0.69 µM | 0.69 µM | COc1cc(C(=O)N2CCN(Cc3csc(NC[C@@H]4CCCN4Cc4ccc(S(C)(=O)=O)cc4)n3)CC2)cc(OC)c1OC [Compound A308] | –
0.62 µM | 0.62 µM | COc1ccc(C(=O)N2CCN(Cc3csc(NC[C@@H]4CCCN4Cc4ccc(Br)cc4)n3)CC2)cc1OC [Compound A402] | –
0.53 µM | 0.53 µM | COc1cccc(C(=O)N2CCN(Cc3csc(NC[C@@H]4CCCN4Cc4ccc(Br)cc4)n3)CC2)c1 [Compound A403] | –
0.247 µM | 0.25 µM | O=C(c1ccc(=O)[nH]c1)N1CCN(Cc2csc(NC[C@@H]3CCCN3Cc3ccc(Br)cc3)n2)CC1 [Compound A405] | –
0.49 µM | 0.49 µM | Cn1ncc2cc(C(=O)N3CCN(Cc4csc(NC[C@@H]5CCCN5Cc5ccc(Br)cc5)n4)CC3)ccc21 [Compound A407] | –
0.74 µM | 0.74 µM | COc1cc(CN2CCN(Cc3csc(NCC4CCCN4Cc4ccc(Br)cc4)n3)CC2)cc(OC)c1OC (stereo not drawn) [Compound A501] | –
0.159 µM | 0.16 µM | COc1cc(CN2CCN(Cc3csc(NCC4CCCN4C(C)c4ccc(Br)cc4)n3)CC2)cc(OC)c1OC (stereo not drawn) [Compound A601] | –
0.324 µM | 0.32 µM | COc1cc(CN2CCN(Cc3csc(NCC4CCCN4C(C)c4ccc(Br)cc4)n3)CC2)cc(OC)c1OC (stereo not drawn) [Compound A602] | –
0.11 µM | 0.11 µM | COc1cc(C(=O)N2CCN([C@H](C)c3csc(NC[C@@H]4CCCN4Cc4ccc(Br)cc4)n3)CC2)cc(OC)c1OC [Compound A603] | –
0.215 µM | 0.22 µM | COc1cc(C(=O)N2CCN([C@@H](C)c3csc(NC[C@@H]4CCCN4Cc4ccc(Br)cc4)n3)CC2)cc(OC)c1OC [Compound A604] | –
0.096 µM | 0.096 µM | COc1cc(C(=O)N2C[C@H](C)N(Cc3csc(NC[C@@H]4CCCN4Cc4ccc(Br)cc4)n3)C[C@@H]2C)cc(OC)c1OC [Compound A607] | –
0.109 µM | 0.11 µM | COc1cc(C(=O)C2CCN(Cc3csc(NC[C@@H]4CCCN4Cc4ccc(Br)cc4)n3)CC2)cc(OC)c1OC [Compound A703] | –
0.089 µM | 0.089 µM | COc1cc(C(=O)N2CCN(Cc3csc(NC[C@@H]4C[C@@H](O)CN4Cc4ccc(Br)cc4)n3)CC2)cc(OC)c1OC [Compound A704] | –
0.171 µM | 0.17 µM | COc1cc(C(=O)N2CCN(Cc3csc(NC[C@@H]4C[C@@H](OC)CN4Cc4ccc(Br)cc4)n3)CC2)cc(OC)c1OC [Compound A705] | –
0.205 µM | 0.21 µM | COc1cc(C(=O)N2CCN(Cc3csc(NC[C@@H]4CCCN4Cc4ccc(Cl)cc4)n3)CC2)cc(OC)c1OC [Compound B313] | –
0.353 µM | 0.35 µM | COc1cc(C(=O)N2CCN(Cc3csc(NC[C@@H]4CCCN4Cc4ccc(C(F)F)cc4)n3)CC2)cc(OC)c1OC [Compound B315] | –
